Laboratory results from ChEMBL document CHEMBL1201862, “PubChem BioAssay data set” (2004).
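48-hour exposure; five concentrations; linearly interpolated endpoints. At the GI50, growth is halved.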 Activity calls are given as the source filed them. Cut-off read from the data, not from the text of the source: active = GI50 up to about 1.1 µM and inactive = higher.

How the values were obtained:
Assay in all cases: inhibition of tumour cell growth, NCI panel, 48 h
MDA-MB-435 = test system: MDA-MB-435
NCI-H522 = test system: NCI-H522
U-251 = test system: U-251
RPMI-8226 = test system: RPMI-8226
BT-549 = test system: BT-549
OVCAR-4 = test system: OVCAR-4
CCRF-CEM = test system: CCRF-CEM
KM12 = test system: KM12
HCT-15 = test system: HCT-15
Malme-3M = test system: Malme-3M
SF-268 = test system: SF-268
DU-145 = test system: DU-145
HT-29 = test system: HT-29
MCF7 = test system: MCF7
UO-31 = test system: UO-31
OVCAR-3 = test system: OVCAR-3
SN12C = test system: SN12C
Hs-578T = test system: Hs-578T
786-0 = test system: 786-0
UACC-257 = test system: UACC-257
NCI-H226 = test system: NCI-H226
HL-60 = test system: HL-60
HOP-62 = test system: HOP-62
UACC-62 = test system: UACC-62
CAKI-1 = test system: CAKI-1
SF-295 = test system: SF-295
IGROV-1 = test system: IGROV-1
OVCAR-8 = test system: OVCAR-8
HOP-92 = test system: HOP-92
MDA-N = test system: MDA-N
SK-MEL-2 = test system: SK-MEL-2
HCT-116 = test system: HCT-116
MOLT-4 = test system: MOLT-4
SK-MEL-5 = test system: SK-MEL-5
NCI-H23 = test system: NCI-H23
K562 = test system: K562
PC-3 = test system: PC-3
SF-539 = test system: SF-539
COLO 205 = test system: COLO 205
MDA-MB-231 = test system: MDA-MB-231
TK-10 = test system: TK-10
SK-OV-3 = test system: SK-OV-3
NCI-H460 = test system: NCI-H460
OVCAR-5 = test system: OVCAR-5
EKVX = test system: EKVX
SR = test system: SR
ACHN = test system: ACHN
SK-MEL-28 = test system: SK-MEL-28
HCC 2998 = test system: HCC 2998
RXF 393 = test system: RXF 393
A549 = test system: A549
NCI/ADR-RES = test system: NCI/ADR-RES
SW-620 = test system: SW-620
LOX IMVI = test system: LOX IMVI
T47D = test system: T47D
M14 = test system: M14
A498 = test system: A498
SNB-19 = test system: SNB-19
SNB-75 = test system: SNB-75

Nc1nc2c(C(=O)NCc3cccs3)nnn2c2cccc(Cl)c12
GI50 (MDA-MB-435): > 100 µM (inactive)
GI50 (NCI-H522): > 100 µM (inactive)
GI50 (U-251): > 100 µM (inactive)
GI50 (RPMI-8226): 39.7 µM (inactive)
GI50 (BT-549): > 100 µM (inactive)
GI50 (OVCAR-4): > 100 µM (inactive)
GI50 (CCRF-CEM): 22.3 µM (inactive)
GI50 (KM12): > 100 µM (inactive)
GI50 (HCT-15): > 100 µM
GI50 (Malme-3M): > 100 µM (inactive)
GI50 (SF-268): > 100 µM (inactive)
GI50 (DU-145): > 100 µM (inactive)
GI50 (HT-29): > 100 µM (inactive)
GI50 (MCF7): 53.8 µM (inactive)
GI50 (UO-31): 87.5 µM (inactive)
GI50 (OVCAR-3): > 100 µM (inactive)
GI50 (SN12C): > 100 µM (inactive)
GI50 (Hs-578T): > 100 µM (inactive)
GI50 (786-0): > 100 µM (inactive)
GI50 (UACC-257): > 100 µM (inactive)
GI50 (NCI-H226): 92 µM (inactive)
GI50 (HL-60): > 100 µM (inactive)
GI50 (HOP-62): > 100 µM (inactive)
GI50 (UACC-62): > 100 µM (inactive)
GI50 (CAKI-1): > 100 µM (inactive)
GI50 (SF-295): > 100 µM (inactive)
GI50 (IGROV-1): > 100 µM (inactive)
GI50 (OVCAR-8): 84.7 µM (inactive)
GI50 (HOP-92): 79.3 µM (inactive)
GI50 (MDA-N): > 100 µM (inactive)
GI50 (SK-MEL-2): > 100 µM (inactive)
GI50 (HCT-116): > 100 µM (inactive)
GI50 (MOLT-4): 89.5 µM (inactive)
GI50 (SK-MEL-5): 92.3 µM (inactive)
GI50 (NCI-H23): 87.3 µM (inactive)
GI50 (K562): > 100 µM (inactive)
GI50 (PC-3): 54.5 µM (inactive)
GI50 (SF-539): 77.3 µM (inactive)
GI50 (COLO 205): > 100 µM (inactive)
GI50 (MDA-MB-231): 60.1 µM (inactive)
GI50 (TK-10): > 100 µM (inactive)
GI50 (SK-OV-3): > 100 µM (inactive)
GI50 (NCI-H460): > 100 µM (inactive)
GI50 (OVCAR-5): 45.3 µM (inactive)
GI50 (EKVX): 57.8 µM (inactive)
GI50 (SR): 52.2 µM (inactive)
GI50 (ACHN): > 100 µM (inactive)
GI50 (SK-MEL-28): 92.3 µM (inactive)
GI50 (HCC 2998): 30.5 µM (inactive)
GI50 (RXF 393): 59.4 µM (inactive)
GI50 (A549): > 100 µM (inactive)
GI50 (NCI/ADR-RES): > 100 µM (inactive)
GI50 (SW-620): 91.2 µM (inactive)
GI50 (LOX IMVI): > 100 µM (inactive)
GI50 (T47D): 19.5 µM (inactive)
GI50 (M14): > 100 µM (inactive)
GI50 (A498): > 100 µM (inactive)
GI50 (SNB-19): > 100 µM (inactive)

CCC(C)C(=O)OCC(=O)c1ccc(-c2ccccc2)cc1 (stereo unspecified)
GI50 (MDA-MB-435): 99.1 µM (inactive)
GI50 (NCI-H522): 22.8 µM (inactive)
GI50 (SNB-75): 80.7 µM (inactive)
GI50 (U-251): 50.5 µM (inactive)
GI50 (RPMI-8226): 24.5 µM (inactive)
GI50 (BT-549): 45.4 µM (inactive)
GI50 (CCRF-CEM): 35 µM (inactive)
GI50 (KM12): 28.1 µM (inactive)
GI50 (HCT-15): 18.1 µM
GI50 (Malme-3M): 29.1 µM (inactive)
GI50 (SF-268): 41.4 µM (inactive)
GI50 (DU-145): 52.2 µM (inactive)
GI50 (HT-29): 34.6 µM (inactive)
GI50 (MCF7): 44.8 µM (inactive)
GI50 (UO-31): > 100 µM (inactive)
GI50 (OVCAR-3): 37.8 µM (inactive)
GI50 (SN12C): > 100 µM (inactive)
GI50 (Hs-578T): 45.9 µM (inactive)
GI50 (786-0): > 100 µM (inactive)
GI50 (UACC-257): 27.2 µM (inactive)
GI50 (HL-60): > 100 µM (inactive)
GI50 (HOP-62): > 100 µM (inactive)
GI50 (UACC-62): 79.3 µM (inactive)
GI50 (CAKI-1): 42.7 µM (inactive)
GI50 (SF-295): 59.8 µM (inactive)
GI50 (IGROV-1): > 100 µM (inactive)
GI50 (OVCAR-8): 79.3 µM (inactive)
GI50 (HOP-92): > 100 µM (inactive)
GI50 (MDA-N): 45.7 µM (inactive)
GI50 (SK-MEL-2): 41.6 µM (inactive)
GI50 (HCT-116): 68.7 µM (inactive)
GI50 (MOLT-4): 46.9 µM (inactive)
GI50 (SK-MEL-5): 24.7 µM (inactive)
GI50 (NCI-H23): 63.7 µM (inactive)
GI50 (K562): 41 µM (inactive)
GI50 (PC-3): 63 µM (inactive)
GI50 (SF-539): > 100 µM (inactive)
GI50 (COLO 205): > 100 µM (inactive)
GI50 (MDA-MB-231): 78.9 µM (inactive)
GI50 (TK-10): 66.4 µM (inactive)
GI50 (SK-OV-3): > 100 µM (inactive)
GI50 (NCI-H460): > 100 µM (inactive)
GI50 (OVCAR-5): > 100 µM (inactive)
GI50 (EKVX): 25.6 µM (inactive)
GI50 (SR): 31.6 µM (inactive)
GI50 (ACHN): > 100 µM (inactive)
GI50 (SK-MEL-28): 72.9 µM (inactive)
GI50 (HCC 2998): > 100 µM (inactive)
GI50 (A549): 44.1 µM (inactive)
GI50 (NCI/ADR-RES): 76.9 µM (inactive)
GI50 (SW-620): 53.6 µM (inactive)
GI50 (LOX IMVI): 34.7 µM (inactive)
GI50 (T47D): 22.3 µM (inactive)
GI50 (M14): 89.7 µM (inactive)
GI50 (A498): 32.7 µM (inactive)
GI50 (SNB-19): 80.7 µM (inactive)

N#Cc1c(N)nc2[nH]nc(N)c2c1-c1ccc(Cl)cc1
GI50 (MDA-MB-435): 5.85 µM (inactive)
GI50 (NCI-H522): 2.56 µM (inactive)
GI50 (U-251): 19.3 µM (inactive)
GI50 (BT-549): 2.73 µM (inactive)
GI50 (OVCAR-4): 8.95 µM (inactive)
GI50 (CCRF-CEM): 4.95 µM (inactive)
GI50 (KM12): 4.12 µM (inactive)
GI50 (HCT-15): 3.82 µM
GI50 (Malme-3M): 2.1 µM (inactive)
GI50 (SF-268): 5.11 µM (inactive)
GI50 (DU-145): 4.8 µM (inactive)
GI50 (HT-29): 7.62 µM (inactive)
GI50 (MCF7): 3.03 µM (inactive)
GI50 (UO-31): 2.42 µM (inactive)
GI50 (OVCAR-3): 2.34 µM (inactive)
GI50 (SN12C): 3.32 µM (inactive)
GI50 (Hs-578T): 2.5 µM (inactive)
GI50 (786-0): 7.94 µM (inactive)
GI50 (UACC-257): 11.9 µM (inactive)
GI50 (NCI-H226): 5.41 µM (inactive)
GI50 (HL-60): 9.75 µM (inactive)
GI50 (HOP-62): 6.75 µM (inactive)
GI50 (UACC-62): 1.42 µM (inactive)
GI50 (CAKI-1): 3.02 µM (inactive)
GI50 (SF-295): 6.03 µM (inactive)
GI50 (IGROV-1): 1.84 µM (inactive)
GI50 (OVCAR-8): 6.75 µM (inactive)
GI50 (HOP-92): 1.81 µM (inactive)
GI50 (MDA-N): 4.22 µM (inactive)
GI50 (SK-MEL-2): 1.88 µM (inactive)
GI50 (HCT-116): 5.52 µM (inactive)
GI50 (MOLT-4): 2.54 µM (inactive)
GI50 (SK-MEL-5): 3.84 µM (inactive)
GI50 (NCI-H23): 3.76 µM (inactive)
GI50 (K562): 16.9 µM (inactive)
GI50 (PC-3): 2.65 µM (inactive)
GI50 (SF-539): 6.38 µM (inactive)
GI50 (COLO 205): 1.48 µM (inactive)
GI50 (MDA-MB-231): 2.65 µM (inactive)
GI50 (TK-10): 2.1 µM (inactive)
GI50 (SK-OV-3): 2.56 µM (inactive)
GI50 (NCI-H460): 3.15 µM (inactive)
GI50 (OVCAR-5): 11.9 µM (inactive)
GI50 (EKVX): 5.21 µM (inactive)
GI50 (SR): > 22.6 µM (inactive)
GI50 (ACHN): 2.49 µM (inactive)
GI50 (SK-MEL-28): 6.95 µM (inactive)
GI50 (HCC 2998): 10 µM (inactive)
GI50 (RXF 393): 2.11 µM (inactive)
GI50 (A549): 5.66 µM (inactive)
GI50 (NCI/ADR-RES): 7.66 µM (inactive)
GI50 (SW-620): 13.8 µM (inactive)
GI50 (LOX IMVI): 2.83 µM (inactive)
GI50 (T47D): 1.47 µM (inactive)
GI50 (M14): 3.33 µM (inactive)
GI50 (A498): 0.656 µM (active)
GI50 (SNB-19): 29.2 µM (inactive)
